According to patent US4482548A, “Analgesic pharmaceutical compositions containing 5-phenyl-1,4-benzo diazepine compounds and a method of using same” (Kali-Chemie Pharma GmbH, priority 1982, dated 1984):

What was measured:
arthritis pain in rats = assay: Arthritis pain test on rats (suppression of the arthritis pain in rats); format: in vivo, male rats of the OFA strain; details: Rattus norvegicus, po, 3 h after administration; dosage protecting 50% of the treated animals against pain
Procedure: (§1) Such tests, for instance, compare the pain allaying effect of the test compound in the arthritis pain test with the sedative and muscle relaxing effects which impair the normal activity of rats.
1. Arthritis pain test on rats.
Male rats of the OFA strain, weighing between 160 g. and 180 g. are anesthetized by intraperitoneal administration of 20 mg./kg. of Pentobarbital Sodium. 0.1 ml. of a suspension of 0.6 mg. of Mycobacterium Smegmae (SI043) in paraffin oil are injected intracutaneously into the left hind paw of the rats. Fourteen days thereafter, when a pronounced secondary arthritis has developed especially in the right hind paw of the rats, the effects of the test compounds are investigated. For this purpose a control measurement is carried out thirty minutes before administration of the compound to be tested by deflecting three times the ankle joints of the right hind paws of the test animals and counting the number of distress sounds emitted by them. […] The ankle joint deflecting procedure is repeated three hours after oral administration of the compounds to be tested. Animals which emit distress sounds either only once or not at all are considered as being protected against pain. The dosage by which protection against pain is achieved in 50% of the treated animals is designated as the effective dosage ED50.

[1] = Inhibition of the locomotion exploratory activity according to Janssen (suppression of the locomotor exploration activity on rats); design: species or system male rats of the Sprague-Dawley type; details: rat, in vivo, po, 1 h before test; dosage corresponding to 9 points for six pairs of rats
Text: as §1
2. Determination of the inhibition of the locomotion exploratory activity according to the method described by Janssen in "Psychopharmakologie", vol. 1 (1961), pages 141-146.
The compound to be tested is orally administered in the form of a suspension in 2% Tylose solution to male rats of the Sprague-Dawley type one hour before starting the test. Six pairs of rats are used for each dosage to be administered. Each pair of rats is then placed into an environment which is entirely unknown to them. The locomotor activity of said rats with respect to the exploration and inquisitiveness phase within the first thirty seconds is observed and recorded by two observers. The observed activity is evaluated according to a point system. According to said system the highest possible number of points for six pairs of rats amounts to 18 points. That dosage which corresponds to 9 points for six pairs of rats is designated as ED50.

Acute toxicity on mice = details: mouse, in vivo, po, read-out: Acute toxicity on mice ED50

Compound	ED50 (arthritis pain in rats)	ED50 at 1 h [1]	LD50 (Acute toxicity on mice)
CN1C(=O)CN=C(c2ccccc2)c2cc(Cl)ccc21 [Diazepam, 7-chloro-1-methyl-5-phenyl-1,3-dihydro-2H-1,4-benzo diazepin-2-one, reference compound]	6.2 mg/kg	11.5 mg/kg	
COCC1CN=C(c2ccccc2Cl)c2cc(Br)ccc2N1C (centres unmarked) [compound 1, 1-methyl-7-bromo-2-methoxy methyl-5-(2-chlorophenyl)-1H-2,3-dihydro-1,4-benzo diazepine]	4.8 mg/kg	56.2 mg/kg	2390 mg/kg
COCC1CN=C(c2ccccc2Cl)c2cc(Cl)ccc2N1C (centres unmarked) [compound 2, 1-methyl-7-chloro-2-methoxy methyl-5-(2-chlorophenyl)-1H-2,3-dihydro-1,4-benzo diazepine]	10 mg/kg	55.5 mg/kg	1470 mg/kg
